Activity calls are given as the source filed them.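 Rule for the calls: active = compounds giving half or more protection of infected cells from virus-caused growth loss, again on retest; inactive = the rest.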
Tested on: CEM cells HIV-1 protection, formazan growth assay
Experiment: NCI AIDS Antiviral Assay
Conditions: for IC50: measured here: growth of uninfected CEM cells
Method in brief: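 Five concentrations of each compound were applied to infected and uninfected human CEM cells. Protection from HIV-1 was judged from growth measured with a soluble formazan assay.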

SMILES	EC50 [µM]	IC50 [µM]	outcome
c1cc(-c2cn3c(n2)SCC3)ccn1	> 437	182	
COc1ccc(C2SC(N)=Nc3c2c(C)nn3C(=O)c2ccncc2)cc1 (stereo not drawn)	> 200	110	
NC(=O)SCC(=O)NNc1ccccc1	> 200	4.47	
COc1cccc(/C=N/[N-]C(N)=O)c1[O-].[Co+2].[OH3+].c1ccncc1	> 14.5	> 14.5	
CC(CCc1nc2ccccc2o1)C1CCC2C3CC[C@@H]4C[C@H](O)CC[C@]4(C)C3C[C@H](O)[C@]12C (stereo partly drawn)	> 50.1	7.24	
COC1OC(C(C)Br)C2OC(C)(C)OC12 (stereo not drawn)	> 200	> 200	
O=C(C1OC1c1ccc(Cl)cc1)C12CC3CC(CC(C3)C1)C2 (stereo not drawn)	> 200	18.2	
COc1ccc(N2C(=O)/C(=C\c3cc(OC)c(OC)c(OC)c3)S(=O)(=O)C2c2ccccc2)cc1 (stereo not drawn)	> 200	41.7	
O=C1C(S)=[N+](O)c2ccccc2[N+]1=O	> 200	> 200	
N#CC(C#N)=c1[nH]c2cccc3c2-c2c(cccc2c3=C(C#N)C#N)[nH]1			inactive
Cc1ccc2c(c1C)C(=O)C1(C2)Cc2ccc3c(c2C1=O)CCC3 (stereo not drawn)	> 100	> 100	
CC(=O)C1=C(O)C(c2ccccc2)c2ccccc21 (stereo not drawn)	> 389	97.7	
COc1ccc(NC(=O)CC2SC(=Nc3ccccc3C)NC2=O)c([N+](=O)[O-])c1 (stereo not drawn)			inactive
CN(O)C(=O)c1ccccc1	> 1660	1380	
CC(C)/C(Cl)=N\OC(=O)Nc1ccc(F)cc1F	> 200	7.24	
Cc1[nH]ccc2c1[nH]c1cc(=O)ccc12	> 1070	16.6	
Cc1ccc(O)c(C(=O)CCCC(=O)c2cc(C)ccc2O)c1	> 12	> 12	
Cc1ccc(S(=O)(=O)Nn2c(S)c(C#N)c(-c3ccc(Cl)cc3)c(C#N)c2=O)cc1	> 200	12	
Nc1nc2c(c(=O)[nH]1)CNC2=O	> 200	> 200	
CN1CCN(c2n[nH]c(=O)c3c2nnn3Cc2ccccc2)CC1	> 200	> 200	
O=C1C(Cl)C(c2ccccc2Cl)N1n1cnc2ccccc2c1=O (stereo not drawn)	> 14.5	> 14.5	
[Cl][Sn]([c]1ccccc1)([c]1ccccc1)[c]1ccccc1			inactive

SMILES	EC50 [µM]	IC50 [µM]	outcome
CC(C)(C)c1ccc(-n2c3nc(=O)n(-c4ccccc4C(F)(F)F)c(=O)c-3cc3ccccc32)cc1	> 200	15.8	
CCOC(=O)/C(C#N)=C1\SS/C(=C(/C#N)C(=O)OCC)S1	> 200	19.5	
O=c1n(-c2ccccc2)c(=O)n2n1C1C3C4C5C1C5C2C43 (stereo not drawn)	> 200	> 200	
CC(=O)OCC1OC(Nc2cc(=O)[nH]c(=O)[nH]2)C(OC(C)=O)C(OC(C)=O)C1OC(C)=O (stereo not drawn)			inactive
COC(=O)C1CCCN1C(=O)C(Cc1cn(S(=O)(=O)c2ccc(C)cc2)cn1)NC(=O)OC(C)(C)C (stereo not drawn)	> 200	> 200	
O=S(=O)(Cc1nc2ccccc2s1)c1nc2ccccc2s1	> 200	4.79	
C=C1C(=O)OC2CC(C)C3CC(OC)OC(OC)C3(C)CC12 (stereo not drawn)	> 589	3.72	
COc1ccc(NC(=O)CSc2nnc(Cc3ccccc3)o2)cc1	> 100	23.4	
COc1cc2c(cc1OC)/C(=C/c1ccc(N(C)C)cc1)C=C2	> 17	> 17	
Cc1ccccc1N=NC(C(=O)c1ccccc1)C(=O)c1ccccc1	> 20.9	14.8	
COc1ccc(/C=C2\CSC(=O)NC2=O)cc1OC	> 891	240	
COc1ccc(-n2c(C)nc3ccc(NC4OC(CO)C(O)C(O)C4O)cc3c2=O)cc1 (stereo not drawn)	> 200	> 200	
COc1ccc(NC(=S)Nc2ccccn2)cc1	> 200	> 200	
O=C1c2ccccc2CCCC12OC2c1cccnc1 (stereo not drawn)	> 257	151	
Cc1c(COC(=O)NC(C)C)c(COC(=O)NC(C)C)c2n1CSC2	> 51.3	2.4	
Cn1c(/C=C(\O)c2ccccc2)nc2ccccc21	> 105	83.2	
CCOP(=O)(OCC)C(Nc1ccc(Cl)cc1)c1ccc(F)cc1 (stereo not drawn)			inactive
Cn1ncc2c(c1=O)Nc1ccccc1S2(=O)=O	> 112	> 112	
Cc1noc2c1CC(=O)c1ccccc1OC2	> 389	224	
CCOC(=O)CN(c1sc(C)c(CC)c1C(=O)OCC)S(=O)(=O)c1ccc(C)cc1	> 200	10.2	
O=C(N=S(NC(=O)c1ccccc1)C(Cl)(Cl)Cl)c1ccccc1 (stereo not drawn)	> 44.7	16.6	
N=C(N)Cn1cnc2ccccc21	> 5500	4680	

From PubChem BioAssay AID179 (DTP/NCI, 2004)
